Test results: patent publication US10316017B2, “COT modulators and methods of use thereof” (Gilead Sciences, Inc., priority 2015, dated 2019)

Assays:
[1] = tested on: TNFα production in LPS-stimulated human monocytes; experiment: Cot Monocyte TNFα Cell Based Assay; conditions: Homo sapiens, Monocyte, LPS-stimulated human monocytes, TNFα TR-FRET; read-out: EC50 TNF
In short: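 TNFα release quantified by two-antibody TR-FRET, normalised to unstimulated (0%) and LPS-stimulated (100%) wells. Cells got a 1 h compound exposure at 37° C in 0.5% DMSO before 4 h challenge with 50 pg/ml LPS, at 5,000 cells/well.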

[2] = target: T1, human Cot catalytic domain (30-397 amino acids) (Homo sapiens, UniProt P41279); experiment: High Throughput Cot Biochemical Assay (KinEASE TR-FRET); conditions: Cot KinEASE TR-FRET, 400 μM ATP; read-out: IC50 HTRF
T1 construct: Purified recombinant human Cot catalytic domain (30-397 amino acids) was purchased from Cama Biosciences; purchased Cama Biosciences (so in the source)
In short: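 TR-FRET (KinEASE) read-out: Eu-labelled phospho-specific antibody binds XL665-tagged STK3 peptide (1 μM) phosphorylated by 5 nM human Cot kinase domain (residues 30-397). Reaction at 400 μM ATP, pH 7.0 MOPS buffer with 10 mM MgOAc, 1 mM DTT and 0.1% DMSO.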

T1 sequence (P41279 30-397): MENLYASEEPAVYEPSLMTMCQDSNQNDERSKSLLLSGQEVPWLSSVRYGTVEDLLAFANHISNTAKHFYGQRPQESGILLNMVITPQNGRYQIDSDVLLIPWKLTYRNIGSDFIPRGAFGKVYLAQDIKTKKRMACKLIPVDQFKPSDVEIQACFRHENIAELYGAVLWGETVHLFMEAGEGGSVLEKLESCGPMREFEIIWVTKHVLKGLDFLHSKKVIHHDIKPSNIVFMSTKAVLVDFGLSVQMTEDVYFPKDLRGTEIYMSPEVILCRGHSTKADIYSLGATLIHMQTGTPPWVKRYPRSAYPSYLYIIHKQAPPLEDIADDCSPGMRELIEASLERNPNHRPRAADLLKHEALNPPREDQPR

Row | SMILES | EC50 [1] [µM] | IC50 [2] [µM]
1 | Cc1cc(C#N)ccc1[C@H](Nc1cc(C#N)c2ncc(C#N)c(NCC(C)(C)C)c2c1)c1cn(C2(C(F)F)CC2)nn1 [Example 1139, (S)-6-(((4-cyano-2-methylphenyl)(1-(1-(difluoromethyl)cyclopropyl)-1H-1,2,3-triazol-4-yl)methyl)amino)-4-(neopentylamino)quinoline-3,8-dicarbonitrile] | 0.082 | 0.013
2 | Cc1cc(C#N)ccc1[C@H](Nc1cc(C#N)c2ncc(C#N)c(NCC(C)(C)C)c2c1)c1cn(C2(C(F)(F)F)CC2)nn1 [Example 1140, (S)-6-(((4-cyano-2-methylphenyl)(1-(1-(trifluoromethyl)cyclopropyl)-1H-1,2,3-triazol-4-yl)methyl)amino)-4-(neopentylamino)quinoline-3,8-dicarbonitrile] | 0.119 | 0.022
3 | Cc1c(-c2ccncc2)cccc1[C@H](Nc1cc(C#N)c2ncc(C#N)c(NCC(C)(C)C)c2c1)c1cn(C2(C(F)F)CC2)nn1 [Example 1141, (S)-6-(((1-(1-(difluoromethyl)cyclopropyl)-1H-1,2,3-triazol-4-yl)(2-methyl-3-(pyridin-4-yl)phenyl)methyl)amino)-4-(neopentylamino)quinoline-3,8-dicarbonitrile] | 0.069 | 0.002
4 | Cc1c(-c2cnn(C)c2)cccc1[C@H](Nc1cc(C#N)c2ncc(C#N)c(NCC(C)(C)C)c2c1)c1cn(C2(C(F)F)CC2)nn1 [Example 1142, (S)-6-(((1-(1-(difluoromethyl)cyclopropyl)-1H-1,2,3-triazol-4-yl)(2-methyl-3-(1-methyl-1H-pyrazol-4-yl)phenyl)methyl)amino)-4-(neopentylamino)quinoline-3,8-dicarbonitrile] | 0.031 | 0.002
5 | Cc1c(-c2ccn(C)n2)cccc1[C@H](Nc1cc(C#N)c2ncc(C#N)c(NCC(C)(C)C)c2c1)c1cn(C2(C(F)(F)F)CC2)nn1 [Example 1143, (S)-6-(((2-methyl-3-(1-methyl-1H-pyrazol-3-yl)phenyl)(1-(1-(trifluoromethyl)cyclopropyl)-1H-1,2,3-triazol-4-yl)methyl)amino)-4-(neopentylamino)quinoline-3,8-dicarbonitrile] | 0.239 | 0.007
6 | Cc1c(-c2ccccn2)cccc1[C@H](Nc1cc(C#N)c2ncc(C#N)c(NCC(C)(C)C)c2c1)c1cn(C2(C(F)(F)F)CC2)nn1 [Example 1144, (S)-6-(((2-methyl-3-(pyridin-2-yl)phenyl)(1-(1-(trifluoromethyl)cyclopropyl)-1H-1,2,3-triazol-4-yl)methyl)amino)-4-(neopentylamino)quinoline-3,8-dicarbonitrile] | 0.379 | 0.011
7 | Cc1c(-c2cn(C)cn2)cccc1[C@H](Nc1cc(C#N)c2ncc(C#N)c(NCC(C)(C)C)c2c1)c1cn(C2(C(F)(F)F)CC2)nn1 [Example 1145, (S)-6-(((2-methyl-3-(1-methyl-1H-imidazol-4-yl)phenyl)(1-(1-(trifluoromethyl)cyclopropyl)-1H-1,2,3-triazol-4-yl)methyl)amino)-4-(neopentylamino)quinoline-3,8-dicarbonitrile] | 0.099 | 0.005
8 | Cc1c(C#N)cccc1[C@H](Nc1cc(C#N)c2ncc(C#N)c(NCC(C)(C)C(F)(F)F)c2c1)c1cn(C2(C)CC2)nn1 [Example 1146, (S)-6-(((3-cyano-2-methylphenyl)(1-(1-methylcyclopropyl)-1H-1,2,3-triazol-4-yl)methyl)amino)-4-((3,3,3-trifluoro-2,2-dimethylpropyl)amino)quinoline-3,8-dicarbonitrile] | 0.033 | 0.002
9 | Cc1c(C#N)cccc1[C@H](Nc1cc(C#N)c2ncc(C#N)c(NCC(C)(C)C)c2c1)c1cn(C2(CF)CC2)nn1 [Example 1147, (S)-6-(((3-cyano-2-methylphenyl)(1-(1-(fluoromethyl)cyclopropyl)-1H-1,2,3-triazo1-4-yl)methyl)amino)-4-(neopentylamino)quinoline-3,8-dicarbonitrile] | 0.015 | 0.002
10 | Cc1c(C#N)cccc1[C@H](Nc1cc(C#N)c2ncc(C#N)c(NCC(C)(C)C)c2c1)c1cn(C2(C)CC2)nn1 [Example 1148, (S)-6-(((3-cyano-2-methylphenyl)(1-(1-methylcyclopropyl)-1H-1,2,3-triazol-4-yl)methyl)amino)-4-(neopentylamino)quinoline-3,8-dicarbonitrile] | 0.02 | 0.002
11 | Cc1c(C#N)cccc1[C@H](Nc1cc(C#N)c2ncc(C#N)c(NCC(C)(C)C)c2c1)c1cn(C(CF)CF)nn1 [Example 1149, (S)-6-(((3-cyano-2-methylphenyl)(1-(1,3-difluoropropan-2-yl)-1H-1,2,3-triazol-4-yl)methyl)amino)-4-(neopentylamino)quinoline-3,8-dicarbonitrile] | 0.045 | 0.004
12 | Cc1c(C#N)cccc1[C@H](Nc1cc(C#N)c2ncc(C#N)c(NCC(C)(C)C)c2c1)c1cn([C@@H](C)CF)nn1 [Example 1150, 6-(((S)-(3-cyano-2-methylphenyl)(1-((S)-1-fluoropropan-2-yl)-1H-1,2,3-triazol-4-yl)methyl)amino)-4-(neopentylamino)quinoline-3,8-dicarbonitrile] | 0.027 | 0.002
13 | Cc1c(C#N)cccc1[C@H](Nc1cc(C#N)c2ncc(C#N)c(NCC(C)(C)C(F)(F)F)c2c1)c1cn(C23CC(C2)C3)nn1 [Example 1151, (S)-6-(((1-(bicyclo[1.1.1]pentan-1-yl)-1H-1,2,3-triazol-4-yl)(3-cyano-2-methylphenyl)methyl)amino)-4-((3,3,3-trifluoro-2,2-dimethylpropyl)amino) quinoline-3,8-dicarbonitrile] | 0.036 | 0.002
14 | Cc1c(C#N)cccc1[C@H](Nc1cc(C#N)c2ncc(C#N)c(NCC(C)(C)C(F)(F)F)c2c1)c1cn(C2(C3CC3)CC2)nn1 [Example 1152, (S)-6-(((1-([1,1'-bi(cyclopropan)]-1-yl)-1H-1,2,3-triazol-4-yl)(3-cyano-2-methylphenyl)methyl)amino)-4-((3,3,3-trifluoro-2,2-dimethylpropyl)amino)quinoline-3,8-dicarbonitrile] | 0.049 | 0.003
15 | Cc1c(-c2cn[nH]c2)cccc1[C@H](Nc1cc(C#N)c2ncc(C#N)c(NCC(C)(C)C)c2c1)c1cn(C2(C(F)F)CC2)nn1 [Example 1153, (S)-6-(((1-(1-(difluoromethyl)cyclopropyl)-1H-1,2,3-triazol-4-yl)(2-methyl-3-(1H-pyrazol-4-yl)phenyl)methyl)amino)-4-(neopentylamino)quinoline-3,8-dicarbonitrile] | 0.042 | 0.002
16 | Cc1c(-c2cncn2C)cccc1[C@H](Nc1cc(C#N)c2ncc(C#N)c(NCC(C)(C)C)c2c1)c1cn(C2(C(F)F)CC2)nn1 [Example 1154, (S)-6-(((1-(1-(difluoromethyl)cyclopropyl)-1H-1,2,3-triazol-4-yl)(2-methyl-3-(1-methyl-1H-imidazol-5-yl)phenyl)methyl)amino)-4-(neopentylamino)quinoline-3,8-dicarbonitrile] | 0.045 | 0.002
17 | Cc1c(-c2ccnnc2)cccc1[C@H](Nc1cc(C#N)c2ncc(C#N)c(NCC(C)(C)C)c2c1)c1cn(C2(C(F)F)CC2)nn1 [Example 1155, (S)-6-(((1-(1-(difluoromethyl)cyclopropyl)-1H-1,2,3-triazol-4-yl)(2-methyl-3-(pyridazin-4-yl)phenyl)methyl)amino)-4-(neopentylamino)quinoline-3,8-dicarbonitrile] | 0.06 | 0.001
18 | Cc1c(C#N)cccc1[C@H](Nc1cc(C#N)c2ncc(C#N)c(NCC(C)(C)C)c2c1)c1cn(C23CC(C2)C3)nn1 [Example 1156, (S)-6-(((1-(bicyclo[1.1.1]pentan-1-yl)-1H-1,2,3-triazol-4-yl)(3-cyano-2-methylphenyl)methyl)amino)-4-(neopentylamino)quinoline-3,8-dicarbonitrile] | 0.013 | 0.001
19 | Cc1c(C#N)cccc1[C@H](Nc1cc(C#N)c2ncc(C#N)c(NCC(C)(C)C)c2c1)c1cn(C2(C3CC3)CC2)nn1 [Example 1157, (S)-6-(((1-([1,1'-bi(cyclopropan)]-1-yl)-1H-1,2,3-triazol-4-yl)(3-cyano-2-methylphenyl)methyl)amino)-4-(neopentylamino)quinoline-3,8-dicarbonitrile] | 0.015 | 0.003
20 | Cc1c(-c2cnco2)cccc1[C@H](Nc1cc(C#N)c2ncc(C#N)c(NCC(C)(C)C)c2c1)c1cn(C2(C(F)F)CC2)nn1 [Example 1158, (S)-6-(((1-(1-(difluoromethyl)cyclopropyl)-1H-1,2,3-triazol-4-yl)(2-methyl-3-(oxazol-5-yl)phenyl)methyl)amino)-4-(neopentylamino)quinoline-3,8-dicarbonitrile] | 0.026 | 0.002
21 | CC(C)(C)CNc1c(C#N)cnc2c(C#N)cc(N[C@@H](c3ccccc3Cl)c3nnn(C4(C)CC4)c3F)cc12 [Example 1159, (S)-6-(((2-chlorophenyl)(5-fluoro-1-(1-methylcyclopropyl)-1H-1,2,3-triazol-4-yl)methyl)amino)-4-(neopentylamino)quinoline-3,8-dicarbonitrile] | 0.421 | 0.05
22 | COc1c([C@@H](Nc2cc(C#N)c3ncc(C#N)c(NCC(C)(C)C)c3c2)c2ccccc2Cl)nnn1C1(C)CC1 [Example 1160, (S)-6-(((2-chlorophenyl)(5-methoxy-1-(1-methylcyclopropyl)-1H-1,2,3-triazol-4-yl)methyl)amino)-4-(neopentylamino)quinoline-3,8-dicarbonitrile] | 0.93 | 0.071
